Assay results published in paper PMC11853379, “Glioblastoma Cell Migration, Invasion and Vasculogenic Mimicry Downmodulated by Novel uPAcyclin Derivatives” (Cells, 2025).
Read-outs that look alike come from different tables or passages of the source. Positions of bridges follow the written chain, without caps; N, C: chain ends. Residues, ends and D or L forms follow the SMILES beside them.

Columns and labels:
Assay type in all cases: cell-based, human
[1] = tested on: U251-MG cells; assay: Cell viability / proliferation, Trypan blue exclusion, U251-MG; details: DMEM/10% FBS, 100 nM peptide, 24, 48 and 72 h
Method: (§1) Cell viability was tested in DMEM/10% FBS in the presence of 100 nM uPAcyclin or Ala peptides via a Trypan blue exclusion assay, as previously reported, using 4 × 10^4 U87-MG and U251-MG glioblastoma cells/sample followed for 24, 48 and 72 h.
(§2) To rule out the possibility that the effects of uPAcyclin and Ala peptides could be due to the inhibition of cell proliferation, cell growth in the presence of these peptides was monitored for 24, 48 and 72 h (Supporting Information, Figure S2). U87-MG and U251-MG cells were exposed to diluents or to serum in the presence of 100 nM uPAcyclin, [Ala^1]uPAcyclin, [Ala^4]uPAcyclin, [Ala^8]uPAcyclin and [Ala^2,Ala^5]uPAcyclin (for the peptide choice, see above), and cell viability was tested at the indicated times using Trypan blue (Figure S2A,B). Both cell lines proliferate in culture in the presence of serum (DMEM/10% FBS), but not in a serum-free medium (DMEM). The growth rates of the U87-MG and U251-MG glioblastoma cell lines were similar, regardless of the exposure to 100 nM of uPAcyclin, [Ala^1]uPAcyclin, [Ala^4]uPAcyclin and [Ala^8]uPAcyclin.
(§3) Figure S5. Cell Viability Assay.
(§4) Unaffected proliferation of U87-MG and U251-MG glioblastoma cells exposed to uPacyclin and selected Ala-peptides. 2x104 U87-MG (A) or U251-MG (B) were seeded in 12 well plates for 24 h in DMEM-10% FBS and serum-starved for 24 h. Then, cells were counted (0 h) and grown in DMEM (no serum) or DMEM-10% FBS, in the presence of 100 nM peptides for 24, 48 and 72 h. Histograms represent the average of two separate experiments undertaken in duplicate.
(§5) (1 picture or pasted object on this page, not shown here)

[2] = tested on: U87-MG cells; assay: Cell viability / proliferation, Trypan blue exclusion, U87-MG; details: DMEM/10% FBS, 100 nM peptide, 24, 48 and 72 h
Method: as §1, §2, §3, §4, §5

[3] = tested on: U87-MG cells; details: 24 h; for reduction of vessel formation (VM, branching points): U87-MG on Geltrex
Method: (§6) The tube formation assay was performed as previously described by Franco et al., using 3 × 10^4 U87-MG and 1.5 × 10^4 U251 cells/sample in the absence or presence of specific effectors included at time 0. The evaluation of vascular-like structures, as the branching points number, was performed using the Inverted Microscope DMI Leica 6000 ([…], Milan, Italy) and assessed in 4/5 random fields using the ImageJ 1.52a Software.
(§7) Here, U87-MG cells were plated onto Geltrex^TM, and the formation of round vascular-type structures was assessed after 24 h (Figure 6A). […] If cells are pretreated with nanomolar concentrations of the indicated cyclic peptides for 40 min at 37 °C prior to the VM assay, the number of intersections decreases. For this assay, the peptides [Ala^2, Ala^5]uPAcyclin, [Ala^1]uPAcyclin [Ala^4]uPAcyclin and [Ala^8]uPAcyclin, in addition to the parent uPAcyclin, were selected based on previous considerations. In the histogram shown in Figure 6B, the number of intersections per field is reported for untreated or peptide-exposed samples. As a reference, the uPAcyclin is indeed able to reduce vessel formation by 40% at 1 nM and by 70% at 100 nM. […] [Ala^2,Ala^5]uPAcyclin and [Ala^8]uPAcyclin are able to reduce VM by 50% at 1 nM and by 70% at 100 nM, confirming that they are both efficient inhibitors of GBM functions supporting malignancy. The formation of VM was also monitored in U251-MG cells, which were seeded under the same conditions employed for U87-MG cells. Representative images, reported in Figure 7A, show the elongated structures obtained after 24 h in Geltrex^TM matrix and their reduction in the cells pre-exposed to uPAcyclin, [Ala^2,Ala^5]uPAcyclin and [Ala^8]uPAcyclin. As shown in the histogram reported in Figure 7B, the uPAcyclin is indeed able to reduce vessel formation by 50% at 1 nM and by 80% at 100 nM. […] It is of note that, unlike [Ala^2,Ala^5]uPAcyclin or [Ala^8]uPAcyclin, [Ala^1]uPAcyclin is ineffective, even if employed at 100 nM.
Figure 6 Inhibition of vasculogenic mimicry by U87-MG glioblastoma cells. (A) Representative images of U87-MG cells cultured in DMEM/10% FBS (no matrix) or seeded onto Geltrex^TM in multiwell-96 (3 × 10^4 cells/well). When specified, cells were pre-treated with diluents (untreated) or with the indicated peptides at the indicated concentrations for 40 min at 37 °C prior to the VM assay. All images are taken after 24 h with the DMI Leica 6000 Inverted Microscope and 50× total magnification; scale bar: 100 μm. (B) The quantitation of branching points, defined as the intersection of at least three tubes (red arrows), was performed at 24 h either in control cells and cells exposed to the peptides and reported in the histogram (** p-value < 0.005; *** p-value < 0.001).

[4] = tested on: U251-MG cells; assay: Vasculogenic mimicry (tube formation) assay, U251-MG on Geltrex; details: 24 h
Method: as §6, §7
Figure 7 Inhibition of vasculogenic mimicry by U251-MG glioblastoma cells. (A) Representative images of U251-MG cells cultured in DMEM/10% FBS (no matrix) or seeded onto Geltrex^TM in multiwell-96 (1.5 × 10^4 cells/well). When specified, cells were pretreated with diluents (untreated) or with the indicated peptides at the indicated concentrations for 40 min at 37 °C prior to the VM assay. All images are taken after 24 h with the DMI Leica 6000 Inverted Microscope with 50× total magnification; scale bar: 100 μm. (B) The quantitation and expression of branching points (red arrows), is accomplished as reported in the legend of Figure 6 (*** p-value < 0.001).

IC50 [3] [nM] | SMILES | growth rate / proliferation rate [1] | growth rate / proliferation rate [2] | reduction of vessel formation (VM, branching points) ([3]; 1 nM peptide) [%] | reduction of vessel formation (VM, branching points) ([3]; 100 nM peptide) [%] | inhibition of VM compared to uPAcyclin (in words) [4] | reduction of vessel formation (VM, branching points) ([4]; 1 nM peptide) [%] | reduction of vessel formation (VM, branching points) ([4]; 100 nM peptide) [%]
< 1 | CC(=O)N[C@@H](CCCCN)C(=O)N[C@@H](C)C(=O)N[C@H]1CCC(=O)NCCCC[C@@H](C(N)=O)NC(=O)[C@H](CC(C)C)NC(=O)[C@H](CCC(=O)O)NC(=O)[C@H](CCC(=O)O)NC(=O)[C@@H]2CCCN2C(=O)[C@H](C)NC(=O)[C@H](CO)NC1=O [[Ala^2,Ala^5]uPAcyclin] (Ac-KAESAPEELK-NH2; lactam 3-10) | slight but not significant decrease | slight but not significant decrease | 50 | 70 | slightly more effective inhibitors | – | –
< 1 | CC(=O)N[C@@H](CCCCN)C(=O)N1CCC[C@H]1C(=O)N[C@H]1CCC(=O)NCCCC[C@@H](C(N)=O)NC(=O)[C@H](CC(C)C)NC(=O)[C@H](C)NC(=O)[C@H](CCC(=O)O)NC(=O)[C@@H]2CCCN2C(=O)[C@@H]2CCCN2C(=O)[C@H](CO)NC1=O [[Ala^8]uPAcyclin] (Ac-KPESPPEALK-NH2; lactam 3-10) | similar | similar | 50 | 70 | slightly more effective inhibitors | – | –
– | CC(=O)N[C@@H](CCCCN)C(=O)N1CCC[C@H]1C(=O)N[C@H]1CCC(=O)NCCCC[C@@H](C(N)=O)NC(=O)[C@H](CC(C)C)NC(=O)[C@H](CCC(=O)O)NC(=O)[C@H](CCC(=O)O)NC(=O)[C@@H]2CCCN2C(=O)[C@@H]2CCCN2C(=O)[C@H](CO)NC1=O [uPAcyclin] (Ac-KPESPPEELK-NH2; lactam 3-10) | similar | similar | 40 | 70 | – | 50 | 80
